Data on 15 compounds can be found in patent publication US20070129434A1, “Analgesics and methods of use” (priority 2002, published 2007).

“And” between values parts separate entries of the source, which are not always exact repeats. Identical values can stand only once. Counter-ions that a name gives are not always drawn.

For orientation: IC50 means the midpoint of a concentration-inhibition curve. The low end stands for inhibition by little substance, the high end for a need for much substance.

For one data set, the target named is T1, rat α3β4 nAChRs (Rattus norvegicus, UniProt P04757+P12392).
T1 construct: expressed in transfected cells
The data set is described as follows: cell-based. The format is cell-based. As to conditions: for IC50: inhibition of 86Rb+ efflux stimulated by 100 μM nicotine, KXα3β4R2 cells, mean ± standard error; for type of receptor blockade: nicotine concentration-response curves in presence of antagonist. As to the method:
Cell Culture. The cell line KXα3β4R2 was established previously by stably cotransfecting human embryonic kidney-293 cells with the rat α3 and β4 nAChR subunits genes (Xiao et al., 1998). Cells were maintained in minimum essential medium supplemented with 10% fetal bovine serum, 100 units/ml penicillin G, […], and 0.7 mg/ml of geneticin (G418) at 37° C. with 5% CO2 in a humidified incubator.
^86Rb^+ Efflux Assay. Function of nAChRs expressed in the transfected cells was measured using a ^86Rb^+ efflux assay as described previously (Xiao et al., 1998). In brief, cells in the selection growth medium were plated into 24-well plates coated with poly(D-lysine). The plated cells were grown at 37° C. for 18 to 24 h to reach 70 to 95% confluence. The cells were then incubated in growth medium (0.5 ml/well) containing ^86Rb^+ (2 μCi/ml) for 4 h at 37° C. The loading mixture was then aspirated and the cells were washed three times with buffer (15 mM HEPES, 140 mM NaCl, 2 mM KCl, 1 mM MgSO4, 1.8 mM CaCl, 11 mM glucose, pH 7.4; 1 ml/well) for 30 s, 5 min, and 30 s, respectively. One milliliter of buffer, with or without compounds to be tested, was then added to each well. After incubation for 2 min, the assay buffer was collected for measurements of ^86Rb^+ released from the cells. Cells were then lysed by adding 1 ml of 100 mM NaOH to each well, and the lysate was collected for determination of the amount of ^86Rb^+ that was in the cells at the end of the efflux assay. Radioactivity of assay samples and lysates was measured by liquid scintillation counting. Total loading (cpm) was calculated as the sum of the assay sample and the lysate of each well. The amount of ^86Rb^+ efflux was expressed as a percentage of ^86Rb^+ loaded.
Experiments with antagonists were done in two different ways. […] EC50, Emax, and IC50, values were determined by nonlinear least-squares regression analyses (GraphPad, San Diego, Calif.).

For a further data set, the system named is Swiss-Webster mice. Put plainly: Warm-water tail-withdrawal nociception assay. The format is in vivo. As to conditions: either enantiomer, 40 μg intracerebrally. As to the method:
To confirm their suspicions that the compounds of the present invention, do in fact have an analgesic effect, the inventors experimented with mice. […] Each enantiomer of EDDP, in 40 μg doses, was administered intracerebrally to the mice. The animals were monitored for baseline sensitivity using the warm-water tail-withdrawal nociception assay and the latency to tail withdrawal was monitored as a measurement of analgesia. […] Thus, it is clear that the d-methadone metabolite EDDP has significant analgesic effect. Likewise, the metabolite EMDP and the structural analogs of both EDDP and EMDP are expected to do the same.

The conditions of data set [1]: cited from earlier work.
Data set [2] has as its system glutamate stimulated catecholamine release. The format is cell-based, rat. As to conditions: 1 mM glutamate for 2 min, hippocampus and striatum slices; for block of glutamate stimulated catecholamine release: 10 μM. As to the method: The hippocampus and striatum are both important and well-studied anatomical areas of the brain. The hippocampus is associated with learning and memory functions while the striatus is linked to motor function. Slices were loaded with [^3H]norepinephrine or [^3H]dopamine and then exposed to 1 mM glutamate for 2 min in the absence or presence of MK-801, d-methadone or (+)-EDDP. The baseline release was measured in the absence of glutamate.

Data set [3] has as its target T2, α3β4 receptor agonist recognition sites (Rattus norvegicus, UniProt P04757+P12392).
T2 construct: expressed in transfected cells
Put plainly: [3H]EB ligand binding in membrane homogenates from KXα3β4R2 cells. The text has this:
Bound and free ligands were separated by vacuum filtration through Whatman GF/C filters treated with 0.5% polyethylenimine. […] Specific binding was defined as the difference between total binding and nonspecific binding.

For data set [4], the system named is morphine, methamphetamine, and nicotine self-administration. As to conditions: rats, 5-30 mg/kg; cited from earlier work.
Where [5] appears, read: blocking nicotine-stimulated 86Rb+ efflux.

T1 sequence (P04757 26-499): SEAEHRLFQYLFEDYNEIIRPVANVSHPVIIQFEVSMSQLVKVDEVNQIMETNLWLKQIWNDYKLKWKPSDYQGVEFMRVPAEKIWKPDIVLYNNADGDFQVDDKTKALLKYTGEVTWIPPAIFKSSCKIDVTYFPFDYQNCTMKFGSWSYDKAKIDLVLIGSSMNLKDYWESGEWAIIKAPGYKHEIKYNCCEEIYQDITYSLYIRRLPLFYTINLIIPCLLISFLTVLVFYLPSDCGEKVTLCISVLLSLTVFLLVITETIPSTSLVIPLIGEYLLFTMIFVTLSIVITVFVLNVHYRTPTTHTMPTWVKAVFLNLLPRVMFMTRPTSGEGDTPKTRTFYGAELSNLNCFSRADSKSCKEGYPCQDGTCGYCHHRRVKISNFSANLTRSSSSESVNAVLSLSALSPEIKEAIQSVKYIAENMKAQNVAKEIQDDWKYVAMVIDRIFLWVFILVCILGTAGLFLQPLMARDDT
T1 sequence (P12392 21-495): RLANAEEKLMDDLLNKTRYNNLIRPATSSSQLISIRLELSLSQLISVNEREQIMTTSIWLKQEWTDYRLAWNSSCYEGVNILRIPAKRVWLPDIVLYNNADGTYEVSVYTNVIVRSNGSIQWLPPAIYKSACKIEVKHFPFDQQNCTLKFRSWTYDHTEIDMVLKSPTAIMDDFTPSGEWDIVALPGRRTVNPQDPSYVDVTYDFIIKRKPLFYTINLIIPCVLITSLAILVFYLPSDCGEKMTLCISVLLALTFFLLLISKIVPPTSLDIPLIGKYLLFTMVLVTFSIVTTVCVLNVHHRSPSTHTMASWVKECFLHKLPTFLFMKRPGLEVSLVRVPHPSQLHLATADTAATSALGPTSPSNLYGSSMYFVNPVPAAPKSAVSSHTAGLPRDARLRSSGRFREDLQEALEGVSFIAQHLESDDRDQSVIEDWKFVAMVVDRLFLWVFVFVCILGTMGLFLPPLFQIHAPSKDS
T2 sequence (P04757 26-499): as the sequence (P04757 26-499) above
T2 sequence (P12392 21-495): as the sequence (P12392 21-495) above

For the compound `CN1CCCC1c1cccnc1` (stereo not shown) [nicotine], the “stimulation of 86Rb+ efflux over basal levels” value at rat α3β4 nAChRs was “approximately 10 fold”.

As to `C/C=C1/N(C)C(C)CC1(c1ccccc1)c1ccccc1` (stereo not shown) [EDDP], at rat α3β4 nAChRs (setting [5]), the “potency relative to mecamylamine” value is “twice as potent” and the “potency relative to methadone” value is reported as “about 5 times more potent”. Further, the IC50 against rat α3β4 nAChRs is approximately 400 nM. In the data set on Swiss-Webster mice, the tail withdrawal latency entry is given as “increased”. Also, in data set [1] (following administration of methadone), the peak plasma concentration was approximately 0.2 µM.

`CCC(=O)C(C[C@H](C)N(C)C)(c1ccccc1)c1ccccc1.Cl` [(+)-Methadone, S-(+)-methadone hydrochloride]: on rat α3β4 nAChRs, half-maximal inhibition (IC50) was put at 2500 ± 200 nM. For the same compound, in data set [2], the “block of glutamate stimulated catecholamine release” value is “partial block”.

Take `C[C@]12N[C@H](Cc3ccccc31)c1ccccc12` [MK-801]: inhibition against rat α3β4 nAChRs was half-maximal at 26600 ± 9600 nM (IC50). For the same compound, the “block of glutamate stimulated catecholamine release” value in data set [2] is on record as “partial block”.

Regarding `CCC(=O)C(C[C@@H](C)N(C)C)(c1ccccc1)c1ccccc1` [(−)-Methadone, R-(−)-methadone hydrochloride], on rat α3β4 nAChRs (hydrochloride), the IC50 was 1900 nM and 2000 nM.

`CCC(=O)O[C@](Cc1ccccc1)(c1ccccc1)[C@H](C)CN(C)C` [Propoxyphene, (+)-α-propoxyphene hydrochloride] gave an IC50 against rat α3β4 nAChRs of 2700 ± 400 nM.

As to `CCC1=N[C@H](C)CC1(c1ccccc1)c1ccccc1` [(+)-EMDP, R-(+)-2-ethyl-5-methyl-3,3-diphenyl-1-pyrroline hydrochloride], on rat α3β4 nAChRs, 5800 ± 1000 nM corresponded to half-maximal inhibition (IC50).

Regarding `CCC(=O)C(CC(C)N(C)C)(c1ccccc1)c1ccccc1` (racemic) [methadone, (O)-Methadone hydrochloride], the “block of nicotine-stimulated 86Rb+ efflux” value on rat α3β4 nAChRs (100 μM nicotine plus 200 μM methadone) is “completely blocked”. Further, on rat α3β4 nAChRs, the IC50 is approximately 2000 nM and the “type of receptor blockade” value is reported as “noncompetitive mechanism”. The “increase of 86Rb+ efflux (agonist effect)” value on rat α3β4 nAChRs (methadone alone at concentrations up to 1 mM) is on record as “did not increase”. Besides, in data set [1] (patients taking methadone chronically), the steady-state plasma concentration result is given as “exceed 1 μM”. In addition, the “plasma concentration following a single dose” value in data set [1] (single dose of methadone) is recorded as “approximately 0.25 μM”. Moreover, in data set [3], the “competition for [3H]EB binding sites (in words)” value is reported as “does not compete effectively”.

The compound `CN1CC[C@@]23CCCC[C@@H]2[C@@H]1Cc1ccc(O)cc13` [Dextrorphan] displayed an IC50 at rat α3β4 nAChRs of 29600 ± 5700 nM.

For `CC[C@H](OC(C)=O)C(C[C@H](C)N(C)C)(c1ccccc1)c1ccccc1.Cl` [LAAM, (−)-α-acetylmethadol hydrochloride], at rat α3β4 nAChRs, the IC50 amounted to 2500 ± 400 nM and the “type of receptor blockade” value is recorded as “noncompetitive blockers”.

At rat α3β4 nAChRs, `CCC(=O)O[C@](Cc1ccccc1)(c1ccccc1)[C@H](C)CNC` [Norpropoxyphene, (+)-α-N-norpropoxyphene maleate] showed an IC50 of 1800 ± 100 nM.

With “R-(+)-2-ethyl-1,5-dimethyl-3,3-diphenylpyrrolinium perchlorate [(+)-EDDP]”, at rat α3β4 nAChRs, the IC50 came out at 400 ± 200 nM and the “type of receptor blockade” value was “noncompetitive blockers”. The “effect on glutamate stimulated catecholamine release” value in data set [2] (until 100 μM) is given as “no effect”.

For the compound `COc1ccc2c(c1)[C@]13CCCC[C@@H]1[C@H](C2)N(C)CC3` [Dextromethorphan], at rat α3β4 nAChRs, the IC50 amounted to 8900 ± 1100 nM. For the same compound, the “self-administration of morphine, methamphetamine, and nicotine” value in data set [4] is reported as “decrease”.

As for `CCC1=[N+](C)[C@@H](C)CC1(c1ccccc1)c1ccccc1` [(−)-EDDP, S-(−)-2-ethyl-1,5-dimethyl-3,3-diphenylpyrrolinium perchlorate], the midpoint of inhibition at rat α3β4 nAChRs, the IC50, lay at 400 ± 100 nM.

As for `CCC1=N[C@@H](C)CC1(c1ccccc1)c1ccccc1` [(−)-EMDP, S-(−)-2-ethyl-5-methyl-3,3-diphenyl-1-pyrroline hydrochloride], inhibition at rat α3β4 nAChRs was half-maximal at 6300 ± 700 nM (IC50).
